# pIC50: −log10 of the molar value. Counter-ions that a name gives are not always drawn. Like-named read-outs stand apart in the source and are kept apart here.
# Assays:
# [1] = target: N-terminal GST tagged recombinant human RET cytoplasmic domain (aa 658-end), wild type RET kinase (Homo sapiens (Human), UniProt P07949); experiment: RET Enzyme Assay (HTRF KinEASE-TK), wild type RET; type: biochemical
# [2] = target: human KDR protein in HEK-293 cells (Homo sapiens (Human), UniProt P35968); experiment: KDR Cell Assay (phospho-KDR in HEK-293 cells expressing inducible KDR); type: cell-based; details: pKDR Cell HEK 10% FBS IC50, HEK-293 cells expressing inducible KDR, VEGF stimulated, 10% FBS
# Outline: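 HEK-293 cells with inducible human KDR were treated with compound for 1 h in DMEM (0.25% DMSO final), then lysed. Phospho-KDR was quantified by Meso Scale immunoassay, expressed as percent of control, and IC50 taken where a 4-parameter logistic fit crossed 50 POC.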
# [3] = target: Kif5b-RET fusion protein in HEK-293 cells (Homo sapiens, UniProt P07949); experiment: cell-based; details: read-out: KIF5B-RET pTYR1062 Cell IC50
# [4] = HEK-293 cells expressing Kif5b-RET, phospho-RET(Tyr1062)
# N-terminal GST tagged recombinant human RET cytoplasmic domain (aa 658-end), wild type RET kinase, sequence (P07949 658-1114): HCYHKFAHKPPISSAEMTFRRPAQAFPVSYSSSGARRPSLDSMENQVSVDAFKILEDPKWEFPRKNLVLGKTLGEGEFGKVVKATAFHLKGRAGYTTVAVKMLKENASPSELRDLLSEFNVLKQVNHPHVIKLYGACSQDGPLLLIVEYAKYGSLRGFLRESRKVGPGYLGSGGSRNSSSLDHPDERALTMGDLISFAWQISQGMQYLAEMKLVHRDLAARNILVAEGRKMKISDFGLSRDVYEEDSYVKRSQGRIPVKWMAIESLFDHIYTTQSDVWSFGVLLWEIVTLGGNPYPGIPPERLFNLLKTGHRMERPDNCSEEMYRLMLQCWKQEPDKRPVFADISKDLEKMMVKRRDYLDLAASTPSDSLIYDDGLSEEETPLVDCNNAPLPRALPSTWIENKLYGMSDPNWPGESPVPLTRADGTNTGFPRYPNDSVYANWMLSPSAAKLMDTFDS
# Kif5b-RET fusion protein in HEK-293 cells, sequence (P07949 29-1114 limits assumed): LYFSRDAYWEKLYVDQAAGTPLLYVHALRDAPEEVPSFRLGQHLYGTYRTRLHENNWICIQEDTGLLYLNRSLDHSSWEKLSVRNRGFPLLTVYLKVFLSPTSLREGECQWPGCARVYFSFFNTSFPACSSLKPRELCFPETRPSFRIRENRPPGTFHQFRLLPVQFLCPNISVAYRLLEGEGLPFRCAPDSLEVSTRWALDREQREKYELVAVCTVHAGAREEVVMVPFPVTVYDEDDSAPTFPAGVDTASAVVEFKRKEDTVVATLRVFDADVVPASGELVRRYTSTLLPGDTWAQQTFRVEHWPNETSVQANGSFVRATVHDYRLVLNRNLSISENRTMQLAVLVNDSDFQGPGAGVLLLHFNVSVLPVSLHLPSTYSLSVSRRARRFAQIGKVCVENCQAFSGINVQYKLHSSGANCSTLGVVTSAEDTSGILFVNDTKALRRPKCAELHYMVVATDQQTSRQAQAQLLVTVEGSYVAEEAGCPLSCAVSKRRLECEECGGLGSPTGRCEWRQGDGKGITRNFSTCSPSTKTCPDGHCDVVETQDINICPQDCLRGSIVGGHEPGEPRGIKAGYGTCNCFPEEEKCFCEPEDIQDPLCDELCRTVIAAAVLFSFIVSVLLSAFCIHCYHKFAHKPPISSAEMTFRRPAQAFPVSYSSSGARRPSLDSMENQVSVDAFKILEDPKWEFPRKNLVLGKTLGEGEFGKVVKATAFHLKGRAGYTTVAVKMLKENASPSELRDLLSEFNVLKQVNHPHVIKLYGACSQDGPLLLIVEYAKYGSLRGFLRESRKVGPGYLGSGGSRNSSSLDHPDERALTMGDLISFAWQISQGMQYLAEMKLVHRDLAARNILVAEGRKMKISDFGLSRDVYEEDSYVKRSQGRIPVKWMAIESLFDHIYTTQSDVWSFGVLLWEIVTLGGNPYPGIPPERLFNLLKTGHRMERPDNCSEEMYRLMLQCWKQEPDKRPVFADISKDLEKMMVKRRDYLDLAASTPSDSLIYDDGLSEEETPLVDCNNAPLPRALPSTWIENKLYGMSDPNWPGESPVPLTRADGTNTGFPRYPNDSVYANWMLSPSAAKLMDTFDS
# human KDR protein in HEK-293 cells, sequence (P35968 20-1356): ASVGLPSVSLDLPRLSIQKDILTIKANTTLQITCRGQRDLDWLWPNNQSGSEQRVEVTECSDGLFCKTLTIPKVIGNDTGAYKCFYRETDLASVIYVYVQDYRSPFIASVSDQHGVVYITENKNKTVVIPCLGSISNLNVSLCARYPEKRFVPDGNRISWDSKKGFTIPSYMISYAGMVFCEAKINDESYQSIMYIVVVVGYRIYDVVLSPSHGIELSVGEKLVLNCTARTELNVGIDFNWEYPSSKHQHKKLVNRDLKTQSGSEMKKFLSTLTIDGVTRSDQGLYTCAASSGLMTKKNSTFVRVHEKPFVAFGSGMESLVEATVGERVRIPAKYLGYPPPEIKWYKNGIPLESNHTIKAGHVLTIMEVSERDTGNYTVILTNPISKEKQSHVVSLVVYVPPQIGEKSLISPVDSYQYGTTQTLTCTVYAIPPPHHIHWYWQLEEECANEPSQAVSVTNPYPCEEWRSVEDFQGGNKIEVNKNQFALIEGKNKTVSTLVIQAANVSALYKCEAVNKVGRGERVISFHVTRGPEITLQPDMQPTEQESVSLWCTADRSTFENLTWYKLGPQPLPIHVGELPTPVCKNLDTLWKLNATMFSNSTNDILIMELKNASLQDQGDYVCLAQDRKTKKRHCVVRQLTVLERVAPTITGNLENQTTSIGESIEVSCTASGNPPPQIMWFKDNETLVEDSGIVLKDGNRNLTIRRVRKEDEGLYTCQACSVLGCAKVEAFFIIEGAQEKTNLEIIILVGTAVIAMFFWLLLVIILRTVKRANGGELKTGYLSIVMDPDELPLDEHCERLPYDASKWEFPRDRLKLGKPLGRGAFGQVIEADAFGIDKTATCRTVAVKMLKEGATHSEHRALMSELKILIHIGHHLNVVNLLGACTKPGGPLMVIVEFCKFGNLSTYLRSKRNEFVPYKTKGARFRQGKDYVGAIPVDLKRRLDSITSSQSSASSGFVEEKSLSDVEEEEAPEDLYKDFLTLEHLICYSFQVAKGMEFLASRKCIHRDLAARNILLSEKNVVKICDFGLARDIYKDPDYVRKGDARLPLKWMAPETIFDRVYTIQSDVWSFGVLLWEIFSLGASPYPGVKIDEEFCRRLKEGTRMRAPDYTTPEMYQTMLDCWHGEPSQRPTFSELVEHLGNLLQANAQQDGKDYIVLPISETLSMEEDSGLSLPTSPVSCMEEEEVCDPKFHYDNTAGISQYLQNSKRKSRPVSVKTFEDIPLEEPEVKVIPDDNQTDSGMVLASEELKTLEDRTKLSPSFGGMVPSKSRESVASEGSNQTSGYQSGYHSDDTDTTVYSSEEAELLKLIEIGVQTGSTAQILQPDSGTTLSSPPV
smiles,measurement,setting,value
"CC(C)CNC(=O)N1CCN(c2ccc(-c3cc(-c4cnn(C)c4)cn4ncc(C#N)c34)cn2)CC1 [Example 133, 4-(5-(3-cyano-6-(1-methyl-1H-pyrazol-4-yl)pyrazolo[1,5-a]pyridin-4-yl)pyridin-2-yl)-N-isobutylpiperazine-1-carboxamide]",pIC50,"[1]; wild type RET, 1 mM ATP",8.37
same,pIC50,[2],6.83
same,pIC50,[3]; [4],8.77
"CCNC(=O)N1CCN(c2ccc(-c3cc(-c4cnn(C)c4)cn4ncc(C#N)c34)cn2)CC1 [Example 134, 4-(5-(3-cyano-6-(1-methyl-1H-pyrazol-4-yl)pyrazolo[1,5-a]pyridin-4-yl)pyridin-2-yl)-N-ethylpiperazine-1-carboxamide]",pIC50,"[1]; wild type RET, 1 mM ATP",8.26
same,pIC50,[2],6.49
same,pIC50,[3]; [4],7.94
"COCCNC(=O)N1CCN(c2ccc(-c3cc(-c4cnn(C)c4)cn4ncc(C#N)c34)cn2)CC1 [Example 135, 4-(5-(3-cyano-6-(1-methyl-1H-pyrazol-4-yl)pyrazolo[1,5-a]pyridin-4-yl)pyridin-2-yl)-N-(2-methoxyethyl)piperazine-1-carboxamide]",pIC50,"[1]; wild type RET, 1 mM ATP",7.89
same,pIC50,[2],5.99
same,pIC50,[3]; [4],7.45
"CCN(C)C(=O)N1CCN(c2ccc(-c3cc(-c4cnn(C)c4)cn4ncc(C#N)c34)cn2)CC1 [Example 136, 4-(5-(3-cyano-6-(1-methyl-1H-pyrazol-4-yl)pyrazolo[1,5-a]pyridin-4-yl)pyridin-2-yl)-N-ethyl-N-methylpiperazine-1-carboxamide]",pIC50,"[1]; wild type RET, 1 mM ATP",8.04
same,pIC50,[2],5.80
same,pIC50,[3]; [4],7.92
"Cn1cc(-c2cc(-c3ccc(N4CCN(S(=O)(=O)NC(C)(C)C)CC4)nc3)c3c(C#N)cnn3c2)cn1 [Example 137, N-(tert-butyl)-4-(5-(3-cyano-6-(1-methyl-1H-pyrazol-4-yl)pyrazolo[1,5-a]pyridin-4-yl)pyridin-2-yl)piperazine-1-sulfonamide]",pIC50,"[1]; wild type RET, 1 mM ATP",8.08
same,pIC50,[2],7.15
same,pIC50,[3]; [4],8.28
"Cn1cc(-c2cc(-c3ccc(N4CCN(C=O)CC4)nc3)c3c(C#N)cnn3c2)cn1 [Example 141, 4-(6-(4-formylpiperazin-1-yl)pyridin-3-yl)-6-(1-methyl-1H-pyrazol-4-yl)pyrazolo[1,5-a]pyridine-3-carbonitrile]",pIC50,"[1]; wild type RET, 1 mM ATP",8.13
same,pIC50,[2],6.69
same,pIC50,[3]; [4],7.88
"CN(C)C(=O)CN1CCN(c2ccc(-c3cc(-c4cnn(C)c4)cn4ncc(C#N)c34)cn2)CC1 [Example 143, 2-(4-(5-(3-cyano-6-(1-methyl-1H-pyrazol-4-yl)pyrazolo[1,5-a]pyridin-4-yl)pyridin-2-yl)piperazin-1-yl)-N,N-dimethylacetamide 2,2,2-trifluoroacetate]",pIC50,[1],7.47
same,pIC50,[2],5.75
same,pIC50,[3]; [4],7.16
"CC(C)NC(=O)CN1CCN(c2ccc(-c3cc(-c4cnn(C)c4)cn4ncc(C#N)c34)cn2)CC1 [Example 144, 2-(4-(5-(3-cyano-6-(1-methyl-1H-pyrazol-4-yl)pyrazolo[1,5-a]pyridin-4-yl)pyridin-2-yl)piperazin-1-yl)-N-isopropylacetamide 2,2,2-trifluoroacetate]",pIC50,[1],7.60
same,pIC50,[2],5.77
same,pIC50,[3]; [4],7.23
"CN(C)C(=O)CCN1CCN(c2ccc(-c3cc(-c4cnn(C)c4)cn4ncc(C#N)c34)cn2)CC1 [Example 146, 3-(4-(5-(3-cyano-6-(1-methyl-1H-pyrazol-4-yl)pyrazolo[1,5-a]pyridin-4-yl)pyridin-2-yl)piperazin-1-yl)-N,N-dimethylpropanamide 2,2,2-trifluoroacetate]",pIC50,"[1]; wild type RET, 1 mM ATP",7.91
same,pIC50,[2],6.13
same,pIC50,[3],7.54
"Cn1cc(-c2cc(-c3ccc(N4CCN(CC(O)C(C)(C)C)CC4)nc3)c3c(C#N)cnn3c2)cn1 (stereo not drawn) [Example 148, 4-(6-(4-(2-hydroxy-3,3-dimethylbutyl)piperazin-1-yl)pyridin-3-yl)-6-(1-methyl-1H-pyrazol-4-yl)pyrazolo[1,5-a]pyridine-3-carbonitrile]",pIC50,"[1]; wild type RET, 1 mM ATP",7.70
same,pIC50,[2],5.97
same,pIC50,[3]; [4],7.33
"COC[C@H](O)CN1CCN(c2ccc(-c3cc(-c4cnn(C)c4)cn4ncc(C#N)c34)cn2)CC1 [Example 151, (R)-4-(6-(4-(2-hydroxy-3-methoxypropyl)piperazin-1-yl)pyridin-3-yl)-6-(1-methyl-1H-pyrazol-4-yl)pyrazolo[1,5-a]pyridine-3-carbonitrile]",pIC50,"[1]; wild type RET, 1 mM ATP",7.36
same,pIC50,[2],5.84
same,pIC50,[3]; [4],7.15
"CC(C)C(O)CN1CCN(c2ccc(-c3cc(-c4cnn(C)c4)cn4ncc(C#N)c34)cn2)CC1 (stereo not drawn) [Example 160, 4-(6-(4-(2-hydroxy-3-methylbutyl)piperazin-1-yl)pyridin-3-yl)-6-(1-methyl-1H-pyrazol-4-yl)pyrazolo[1,5-a]pyridine-3-carbonitrile]",pIC50,"[1]; wild type RET, 1 mM ATP",7.87
same,pIC50,[2],6.72
same,pIC50,[3]; [4],7.96
"Cn1cc(-c2cc(-c3ccc(N4CCC(NC(=O)OC(C)(C)C)CC4)nc3)c3c(C#N)cnn3c2)cn1 [Example 176, tert-butyl (1-(5-(3-cyano-6-(1-methyl-1H-pyrazol-4-yl)pyrazolo[1,5-a]pyridin-4-yl)pyridin-2-yl)piperidin-4-yl)carbamate]",pIC50,"[1]; wild type RET, 1 mM ATP",8.12
same,pIC50,[2],6.03
same,pIC50,[3]; [4],7.82
"Cn1cc(-c2cc(-c3ccc(N4CCC(N)CC4)nc3)c3c(C#N)cnn3c2)cn1 [Example 177, 4-(6-(4-aminopiperidin-1-yl)pyridin-3-yl)-6-(1-methyl-1H-pyrazol-4-yl)pyrazolo[1,5-a]pyridine-3-carbonitrile dihydrochloride]",pIC50,"[1]; wild type RET, 1 mM ATP",7.33
same,pIC50,[2],5.93
same,pIC50,[3],7.16
"Cn1cc(-c2cc(-c3ccc(N4CCC(NC(=O)C(C)(C)O)CC4)nc3)c3c(C#N)cnn3c2)cn1 [Example 179, N-(1-(5-(3-cyano-6-(1-methyl-1H-pyrazol-4-yl)pyrazolo[1,5-a]pyridin-4-yl)pyridin-2-yl)piperidin-4-yl)-2-hydroxy-2-methylpropanamide]",pIC50,"[1]; wild type RET, 1 mM ATP",7.74
same,pIC50,[2],6.26
same,pIC50,[3]; [4],7.51
"C[C@@H](O)C(=O)NC1CCN(c2ccc(-c3cc(-c4cnn(C)c4)cn4ncc(C#N)c34)cn2)CC1 [Example 181, (R)-N-(1-(5-(3-cyano-6-(1-methyl-1H-pyrazol-4-yl)pyrazolo[1,5-a]pyridin-4-yl)pyridin-2-yl)piperidin-4-yl)-2-hydroxypropanamide]",pIC50,"[1]; wild type RET, 1 mM ATP",7.98
same,pIC50,[2],5.92
same,pIC50,[3]; [4],6.96
"COCC(=O)NC1CCN(c2ccc(-c3cc(-c4cnn(C)c4)cn4ncc(C#N)c34)cn2)CC1 [Example 183, N-(1-(5-(3-cyano-6-(1-methyl-1H-pyrazol-4-yl)pyrazolo[1,5-a]pyridin-4-yl)pyridin-2-yl)piperidin-4-yl)-2-methoxyacetamide]",pIC50,"[1]; wild type RET, 1 mM ATP",7.92
same,pIC50,[2],6.35
same,pIC50,[3]; [4],7.80
"CC(C)C(=O)NC1CCN(c2ccc(-c3cc(-c4cnn(C)c4)cn4ncc(C#N)c34)cn2)CC1 [Example 185, N-(1-(5-(3-cyano-6-(1-methyl-1H-pyrazol-4-yl)pyrazolo[1,5-a]pyridin-4-yl)pyridin-2-yl)piperidin-4-yl)isobutyramide]",pIC50,"[1]; wild type RET, 1 mM ATP",7.94
same,pIC50,[2],6.20
same,pIC50,[3]; [4],7.84
"CN(C)C(=O)NC1CCN(c2ccc(-c3cc(-c4cnn(C)c4)cn4ncc(C#N)c34)cn2)CC1 [Example 186, 3-(1-(5-(3-cyano-6-(1-methyl-1H-pyrazol-4-yl)pyrazolo[1,5-a]pyridin-4-yl)pyridin-2-yl)piperidin-4-yl)-1,1-dimethylurea]",pIC50,"[1]; wild type RET, 1 mM ATP",7.84
same,pIC50,[2],6.35
same,pIC50,[3]; [4],7.65
"CC(C)NC(=O)NC1CCN(c2ccc(-c3cc(-c4cnn(C)c4)cn4ncc(C#N)c34)cn2)CC1 [Example 187, 1-(1-(5-(3-cyano-6-(1-methyl-1H-pyrazol-4-yl)pyrazolo[1,5-a]pyridin-4-yl)pyridin-2-yl)piperidin-4-yl)-3-isopropylurea]",pIC50,"[1]; wild type RET, 1 mM ATP",7.80
same,pIC50,[2],6.06
same,pIC50,[3]; [4],7.69
"CC(C)OC(=O)NC1CCN(c2ccc(-c3cc(-c4cnn(C)c4)cn4ncc(C#N)c34)cn2)CC1 [Example 188, Isopropyl (1-(5-(3-cyano-6-(1-methyl-1H-pyrazol-4-yl)pyrazolo[1,5-a]pyridin-4-yl)pyridin-2-yl)piperidin-4-yl)carbamate]",pIC50,"[1]; wild type RET, 1 mM ATP",7.77
same,pIC50,[2],6.21
same,pIC50,[3]; [4],8.01
"Cn1cc(-c2cc(-c3ccc(N4CCC(O)CC4)nc3)c3c(C#N)cnn3c2)cn1 [Example 196, 4-(6-(4-hydroxypiperidin-1-yl)pyridin-3-yl)-6-(1-methyl-1H-pyrazol-4-yl)pyrazolo[1,5-a]pyridine-3-carbonitrile]",pIC50,"[1]; wild type RET, 1 mM ATP",7.96
same,pIC50,[2],6.20
same,pIC50,[3]; [4],7.34
"CC(C)COC1CCN(c2ccc(-c3cc(-c4cnn(C)c4)cn4ncc(C#N)c34)cn2)CC1 [Example 197, 4-(6-(4-isobutoxypiperidin-1-yl)pyridin-3-yl)-6-(1-methyl-1H-pyrazol-4-yl)pyrazolo[1,5-a]pyridine-3-carbonitrile]",pIC50,"[1]; wild type RET, 1 mM ATP",7.85
same,pIC50,[2],5.89
same,pIC50,[3]; [4],7.40
"COC1CCN(c2ccc(-c3cc(-c4cnn(C)c4)cn4ncc(C#N)c34)cn2)CC1 [Example 198, 4-(6-(4-methoxypiperidin-1-yl)pyridin-3-yl)-6-(1-methyl-1H-pyrazol-4-yl)pyrazolo[1,5-a]pyridine-3-carbonitrile]",pIC50,"[1]; wild type RET, 1 mM ATP",7.84
same,pIC50,[2],6.18
same,pIC50,[3]; [4],7.60
"Cn1cc(-c2cc(-c3ccc(N4CCC(C)(NC(=O)OC(C)(C)C)CC4)nc3)c3c(C#N)cnn3c2)cn1 [Example 201, tert-butyl (1-(5-(3-cyano-6-(1-methyl-1H-pyrazol-4-yl)pyrazolo[1,5-a]pyridin-4-yl)pyridin-2-yl)-4-methylpiperidin-4-yl)carbamate]",pIC50,"[1]; wild type RET, 1 mM ATP",7.97
same,pIC50,[2],5.94
same,pIC50,[3]; [4],8.15

# Reference: US10023570B2 (Array BioPharma, Inc., priority 2015, dated 2018)
